The values below come from ChEMBL document CHEMBL1914322, “Novel terpenoids of the fungus Aspergillus insuetus isolated from the Mediterranean sponge Psammocinia sp. collected along the coast of Israel” (2011).

Each structure is given as a SMILES string. Values after ≈ are worked out from the molar mass of the structure shown. Active and inactive are the calls of the source. The rule behind the calls is not given here.

In one test the test system is Neurospora crassa. As to the kind of experiment: Antifungal activity against Neurospora crassa 74-OR23-1A after 12 hrs. In kind it is functional.
The test system of another test is MOLT-4. The test can be described thus: Cytotoxicity against human MOLT4 cells at […]. In kind it is functional.

In turn, `CC(O)C(O)/C=C/C=C/C(=O)O[C@@H]1C=C2COC(=O)[C@]2(O)[C@@]2(C)CCCC(C)(C)[C@H]12` (stereo not given in full) yielded an MIC against Neurospora crassa of 162 µM (≈ 68.1 µg/mL). Compound `CC1(C)OC(=O)C=C[C@]2(C)[C@@H]3C[C@@]4(C)C(=O)[C@@]5(C)C[C@@H]6C(=O)OC[C@@]64O[C@@]3(CC[C@@H]12)C5` [INSUETOLIDE A] had an MIC in the test on Neurospora crassa of 140 µM (≈ 60 µg/mL). Moreover, the inhibition result with MOLT-4 is “inactive”. Consider `CC1(C)CCC[C@@]2(C)[C@H]1[C@H](O)C=C1COC(=O)[C@@]12O` [STROBILACTONE A], for which it took 242 µM (≈ 64.5 µg/mL) to inhibit growth against Neurospora crassa (MIC). Moreover, the inhibition result with MOLT-4 was “inactive”.

For orientation: MIC means the lowest concentration found to suppress growth. A high value points to a need for much substance.
